Data published in patent US11479802B2, “Assays for screening activity of modulators of members of the hydroxy steroid (17-beta) dehydrogenase (HSD17B) family” (Regeneron Pharmaceuticals, Inc., priority 2017, dated 2022).
Where a name gives a salt, the structure may show the parent alone.

Biological target: T1, human HSD17B13 (Homo sapiens, UniProt Q7Z5P4)
T1 sequence (Q7Z5P4 20-300): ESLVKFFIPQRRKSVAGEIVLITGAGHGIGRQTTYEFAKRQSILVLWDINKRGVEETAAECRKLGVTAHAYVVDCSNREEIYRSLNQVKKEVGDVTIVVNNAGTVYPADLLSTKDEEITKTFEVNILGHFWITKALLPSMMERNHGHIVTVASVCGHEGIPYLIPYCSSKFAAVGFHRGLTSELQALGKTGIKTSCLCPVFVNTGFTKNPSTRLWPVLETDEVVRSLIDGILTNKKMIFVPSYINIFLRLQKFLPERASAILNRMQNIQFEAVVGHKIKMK
Test: Substrate screening of steroid and bioactive lipid libraries against purified recombinant HSD17B13 (NADH-linked luciferase assay)
Format: biochemical
Conditions: for HSD17B13 Enzymatic Activity Relative Light Units: 500 μM NAD+, 100 ng enzyme, 3 hours at 23° C.; for HSD17B13 Enzymatic Activity Percent Estradiol Control: normalized to 50 μM estradiol after subtraction of 5% DMSO
Procedure, shortened: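 Substrates (bioactive lipids 5 μM, steroids 50 μM; 5% DMSO) tested with 500 μM NAD+ and 100 ng recombinant human HSD17B13 in 0.2 M Tris-HCl pH 7.5, 3 h, 23° C. Luminescent NADH detection followed 1 h later; RLU normalized to estradiol (50 μM, 100%) and DMSO (0%) controls.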

[1] = Bioactive Lipid Library, 5 μM bioactive lipid (Estradiol Control 50 μM)
[2] = Bioactive Lipid Library, 5 μM bioactive lipid

Row | SMILES | HSD17B13 Enzymatic Activity Relative Light Units [1] | HSD17B13 Enzymatic Activity Percent Estradiol Control [2] | HSD17B13 Enzymatic Activity Relative Light Units (Steroid Library, 50 μM steroid) | HSD17B13 Enzymatic Activity Percent Estradiol Control (Steroid Library, 50 μM steroid)
1 | CCCCC[C@H](O)/C=C/[C@@H]1[C@H]2C/C(=C/CCCC(=O)O)C[C@H]2C[C@H]1O [Carbaprostacyclin] | 380280 RLU | 7.68% | – | –
2 | CCCCC[C@H](O)/C=C/[C@H]1CC2CC(C2)[C@@H]1C/C=C\CCCC(=O)O [Carbocyclic Thromboxane A2] | 309000 RLU | 2.05% | – | –
3 | CCCCC[C@H](O)/C=C/[C@H]1[C@H](O)C[C@]2(C)C/C(=C\CCCC(=O)[O-])C[C@H]12.CCCCC[C@H](O)/C=C/[C@H]1[C@H](O)C[C@]2(C)C/C(=C\CCCC(=O)[O-])C[C@H]12.[Ca+2] [Ciprostene (calcium salt)] | 360560 RLU | 6.12% | – | –
4 | C[C@]12C[C@H](O)[C@H]3[C@@H](CCC4=CC(=O)CC[C@@]43C)[C@@H]1CC[C@@H]2C(=O)CO [Corticosterone] | – | – | 215320 RLU | 0.96%
5 | C[C@]12CCC(=O)C=C1CC[C@@H]1[C@@H]2[C@@H](O)C[C@@]2(C)[C@H]1CC[C@]2(O)C(=O)CO [Cortisol] | – | – | 40080 RLU | −2.10%
6 | CC(=O)OCC(=O)[C@@]1(O)CC[C@H]2[C@@H]3CCC4=CC(=O)CC[C@]4(C)[C@H]3C(=O)C[C@@]21C [Cortisone 21-acetate] | – | – | 200240 RLU | 0.69%
7 | C[C@]12CCC(=O)C=C1CC[C@@H]1[C@@H]2C(=O)C[C@@]2(C)[C@H]1CC[C@]2(O)C(=O)CO [Cortisone] | – | – | 204080 RLU | 0.76%
8 | O=P([O-])(O)OC1[C@@H](O)[C@H](OP(=O)([O-])O)C(OP(=O)([O-])O)[C@H](OP(=O)([O-])O)[C@H]1O.[Na+].[Na+].[Na+].[Na+] (stereo partly drawn) [D-myo-Inositol-1,2,3,5-tetraphosphate (sodium salt)] | 430640 RLU | 7.98% | – | –
9 | O=P(O)(O)O[C@@H]1[C@H](OP(=O)(O)O)[C@H](OP(=O)(O)O)[C@@H](O)[C@H](O)[C@H]1OP(=O)(O)O [D-myo-Inositol-1,2,3,6-tetraphosphate (sodium salt)] | 424280 RLU | 7.49% | – | –
10 | O=P(O)(O)OC1[C@@H](OP(=O)(O)O)[C@H](OP(=O)(O)O)C(O)[C@H](OP(=O)(O)O)[C@H]1OP(=O)(O)O (stereo partly drawn) [D-myo-Inositol-1,2,4,5,6-pentaphosphate (sodium salt)] | 398080 RLU | 5.52% | – | –
11 | O=P(O)(O)O[C@@H]1C(O)[C@@H](OP(=O)(O)O)[C@@H](OP(=O)(O)O)C(O)[C@H]1OP(=O)(O)O (stereo partly drawn) [D-myo-Inositol-1,2,4,5-tetraphosphate (sodium salt)] | 403880 RLU | 5.95% | – | –
12 | O=P(O)(O)OC1[C@H](O)[C@H](OP(=O)(O)O)C(OP(=O)(O)O)[C@H](OP(=O)(O)O)[C@H]1O (stereo partly drawn) [D-myo-Inositol-1,3,4,5-tetraphosphate (sodium salt)] | 358920 RLU | 2.56% | – | –
13 | O=P(O)(O)O[C@@H]1C(O)[C@H](OP(=O)(O)O)[C@@H](O)C(O)[C@H]1O (stereo partly drawn) [D-myo-Inositol-1,3-diphosphate (sodium salt)] | 487280 RLU | 12.25% | – | –
14 | O=P(O)(O)O[C@@H]1[C@H](O)[C@H](O)[C@@H](OP(=O)(O)O)[C@H](OP(=O)(O)O)[C@H]1O [D-myo-Inositol-1,4,5-triphosphate (potassium salt)] | 358400 RLU | 2.52% | – | –
15 | O=P(O)(O)OC1[C@@H](O)[C@@H](O)C(OP(=O)(O)O)[C@H](O)[C@H]1O (stereo partly drawn) [D-myo-Inositol-1,4-diphosphate (sodium salt)] | 439280 RLU | 8.63% | – | –
16 | O=P([O-])(O)O[C@@H]1C(O)[C@H](OP(=O)([O-])O)[C@H](O)C(O)[C@H]1O.[Na+].[Na+] (stereo partly drawn) [D-myo-Inositol-1,5-diphosphate (sodium salt)] | 443840 RLU | 8.97% | – | –
17 | O=P(O)(O)O[C@@H]1[C@@H](OP(=O)(O)O)[C@@H](OP(=O)(O)O)[C@@H](O)[C@H](O)[C@H]1OP(=O)(O)O [D-myo-Inositol-2,3,4,5-tetraphosphate (ammonium salt)] | 372320 RLU | 3.57% | – | –
18 | O=P(O)(O)O[C@@H]1C(O)[C@@H](OP(=O)(O)O)[C@@H](O)C(O)[C@H]1O (stereo partly drawn) [D-myo-Inositol-2,4-diphosphate (sodium salt)] | 306720 RLU | −1.38% | – | –
19 | O=P(O)(O)OC1[C@@H](OP(=O)(O)O)[C@H](O)C(O)[C@@H](O)[C@H]1OP(=O)(O)O (stereo partly drawn) [D-myo-Inositol-3,4,5-triphosphate (sodium salt)] | 400520 RLU | 5.70% | – | –

Row | SMILES | HSD17B13 Enzymatic Activity Relative Light Units [1] | HSD17B13 Enzymatic Activity Percent Estradiol Control [2] | HSD17B13 Enzymatic Activity Relative Light Units (Steroid Library, 50 μM steroid) | HSD17B13 Enzymatic Activity Percent Estradiol Control (Steroid Library, 50 μM steroid)
20 | O=P([O-])(O)O[C@@H]1[C@@H](O)[C@H](O)[C@H](O)[C@H](O)[C@H]1OP(=O)([O-])O.[Na+].[Na+] [D-myo-Inositol-4,5-diphosphate (sodium salt)] | 281680 RLU | −3.27% | – | –
21 | O=P(O)(O)OC1[C@@H](O)[C@@H](O)C(O)[C@H](O)[C@H]1O (stereo partly drawn) [D-myo-Inositol-4-phosphate (ammonium salt)] | 408880 RLU | 6.33% | – | –
22 | C[C@]12CC[C@H](O)CC1=CC[C@@H]1[C@@H]2CC[C@]2(C)C(=O)CC[C@@H]12 [Dehydroepiandrosterone] | – | – | 196240 RLU | 0.62%
23 | CCC(=O)O[C@H]1CC[C@H]2[C@@H]3CC[C@H]4CC(=O)[C@H](C)C[C@]4(C)[C@H]3CC[C@]12C [Dromostanolone proprionate] | – | – | 212040 RLU | 0.90%
24 | C[C@]12CC[C@H](O)C[C@@H]1CC[C@@H]1[C@@H]2CC[C@]2(C)C(=O)CC[C@@H]12 [Epiandrosterone] | – | – | 185800 RLU | 0.44%
25 | C[C@]12CC[C@@H]3c4ccc(O)cc4CC[C@H]3[C@@H]1CCC2=O [Estrone] | – | – | – | 0.45%
26 | CC(C)OC(=O)CCC/C=C\C[C@@H]1[C@@H](/C=C/[C@@H](O)COc2cccc(C(F)(F)F)c2)[C@H](O)C[C@@H]1O [Fluprostenol isopropyl ester] | 467040 RLU | 14.54% | – | –
27 | C[C@]12CCC(=O)C(O)=C1CC[C@@H]1[C@@H]2CC[C@]2(C)C(=O)CC[C@@H]12 [Formestane] | – | – | – | 0.63%
28 | C=CCc1ccc(O)c(-c2ccc(O)c(CC=C)c2)c1 [Honokiol] | – | – | 52920 RLU | −1.88%
29 | CC(C)=CCC[C@]1(C)[C@@H](CC=C(C)C)C[C@@]2(CC=C(C)C)C(=O)[C@]1(C(=O)C(C)C)C(=O)C(CC=C(C)C)=C2O [Hyperforin] | 23920 RLU | −22.74% | – | –
30 | O=C(O)CCC/C=C\C[C@@H]1[C@@H](/C=C/[C@@H](O)COc2ccc(I)cc2)[C@H]2CC[C@@H]1O2 [I-BOP] | 358960 RLU | 6.00% | – | –
31 | CC1(C)[C@@H]2C[C@H](NS(=O)(=O)c3ccc(I)cc3)[C@@H](C/C=C\CCCC(=O)O)[C@H]1C2 [I-SAP] | 245520 RLU | −2.97% | – | –
32 | CC#CCC(C)[C@H](O)/C=C/[C@@H]1[C@H]2C/C(=C/CCCC(=O)O)C[C@H]2C[C@H]1O (stereo partly drawn) [Iloprost] | 358880 RLU | 5.99% | – | –
33 | CC(=O)N[C@@H](CSC(=O)[C@]1([C@@H](O)C(C)C)NC(=O)[C@H](C)[C@@H]1O)C(=O)O [Lactacystin] | 328520 RLU | 0.26% | – | –
34 | CCCCCCCC\C=C/C=C/C=C/[C@@H]1O[C@H]1CCCC(=O)OC [Leukotriene A3 methyl ester] | 990560 RLU | 55.92% | – | –
35 | CCCCC/C=C\C\C=C/C=C/C=C/[C@@H]1O[C@H]1CCCC(=O)OC [Leukotriene A4 methyl ester] | 463120 RLU | 14.23% | – | –
36 | CCCCCCCC[C@H](O)/C=C/C=C\C=C\[C@H](O)CCCC(=O)O [Leukotriene B3] | 2077280 RLU | 141.82% | – | –
37 | CCCCC/C=C\C[C@@H](O)/C=C/C=C/C=C\[C@@H](O)CCCC(=O)NCCO [Leukotriene B4 Ethanolamide] | 1948920 RLU | 131.68% | – | –
